Laboratory results as given in patent US9957484B2, “Methods for promoting cell reprogramming” (Sanford-Burnham Medical Research Institute, priority 2011, dated 2018).
pIC50: −log10 of the molar value.

Legend:
Cdk7/H/MAT1 = Cdk7/H/MAT1 (Homo sapiens, UniProt P50613); settings: read-out: Potential Targets: Cdk7/H/MAT1, IC50; cited from earlier work
Cdk2/E = Cdk2/E (Homo sapiens, UniProt P24941); settings: read-out: Potential Targets: Cdk2/E, IC50; cited from earlier work
Cdk3/E = Cdk3/E (Homo sapiens, UniProt Q00526); settings: read-out: Potential Targets: Cdk3/E, IC50; cited from earlier work
Cdk1/B = Cdk1/B (Homo sapiens, UniProt P06493); settings: read-out: Potential Targets: Cdk1/B, IC50; cited from earlier work
Cdk5/p35 = Cdk5/p35 (Homo sapiens, UniProt Q00535); settings: read-out: Potential Targets: Cdk5/p35, IC50; cited from earlier work
PAK4 = PAK4 (Homo sapiens, UniProt O96013); settings: kind of value not given; cited from earlier work
Chk1 = Chk1 (Homo sapiens, UniProt O14757); settings: kind of value not given; cited from earlier work
Cdk1 = Cdk1 (Homo sapiens, UniProt P06493); settings: kind of value not given; cited from earlier work
MAPKAP kinase-2 = MAPKAP kinase-2 (Homo sapiens, UniProt P49137); settings: kind of value not given; cited from earlier work
PKCγ = PKCγ (Homo sapiens, UniProt P05129); settings: kind of value not given; cited from earlier work
[1] = molecular target: Cdc25C-associated protein kinase 1 (Homo sapiens, UniProt P27448); settings: kind of value not given; cited from earlier work
PDK1 = PDK1 (Homo sapiens, UniProt O15530); settings: kind of value not given; cited from earlier work
Lck = Lck (Homo sapiens, UniProt P06239); settings: kind of value not given; cited from earlier work
PKCδ = PKCδ (Homo sapiens, UniProt Q05655); settings: kind of value not given; cited from earlier work
Chk2 = Chk2 (Homo sapiens, UniProt O96017); settings: kind of value not given; cited from earlier work
PKCα = PKCα (Homo sapiens, UniProt P17252); settings: kind of value not given; cited from earlier work
Cdk5/p25 = Cdk5/p25 (Homo sapiens, UniProt Q00535); settings: kind of value not given; cited from earlier work
PKCβ = PKCβ (Homo sapiens, UniProt P05771); settings: kind of value not given; cited from earlier work
Aurora A kinase = experiment: Western blotting of Aurora A kinase protein; assay type: cell-based, mouse; settings: wild type and 4F-infected MEFs (B6 1 μM, 2 days); 4F-infected MEFs (MLN8237, 48 hrs)
Protocol: FIGS. 13A-13h are a series of graphical representations depicting Aurora A kinase inhibition by B6 promoting Akt mediated inactivation of GSK3β. FIG. 13A is a western blot showing B6 treatment increases aurora A kinase protein levels. Both 4F-infected (day 3) and mock MEFs were treated with 1 μM B6 for 2 days and cells were harvested for western blotting of Aurora A kinase. Actin served as loading control.
Cells were harvested 48 hrs after drug treatment for western blotting analysis of AurkA protein. Actin serves as loading control.
Western blotting: Total cell lysates were prepared by incubating cells in MPER buffer (PIERCE, 78503) on ice for 20 min, and then cleared by centrifugation at 13,000 rpm for 10 min. An equal volume of lysates was loaded onto 10% SDS-PAGE gels, and proteins were transferred to PVDF membranes (Bio-Rad, 1620177) using the semi-dry system (Bio-Rad). Membranes were blocked with 5% milk in TBST for at least 1 hr at room temp or overnight at 4° C. Antibodies used include: anti-mNanog (R&D, AF2729), anti-h/mSSEA1 (R&D, MAB2156), anti-Actin (Thermo, MS1295P0), anti-AFP (Abcam, ab7751), anti-Beta III tubulin (R&D systems, MAB1368), and anti-alpha actinin (Sigma, A7811), anti-mAurkA (Bethyl lab, A300-072A), anti-hAurkA (Bethyl lab, A300-071A), total-GSK3β (Cell signaling technology, 9315S), phospho-GSK3β (Cell Signaling Technology, 9323S).

4F-infected MEFs = experiment: Cell cycle analysis, PI staining and flow cytometry; assay type: cell-based, mouse; settings: for cell cycle progression: various concentrations, 48 hr
Protocol: FIG. 24A is a series of images of DNA analysis by flow cytometry. 4F-infected MEFs were treated with different concentrations of B6 at day 3 post-infection. Cells were harvested after 48 hr of drug treatment, subjected to PI staining and analyzed for DNA content by flow cytometry.
FIG. 24B is a series of images of DNA analysis by flow cytometry. […] The experimental procedure was as in FIG. 24A.
Cell cycle analysis: MEFs or 4F-infected MEFs were treated with inhibitors for two days and then harvested and trypsinized before fixing in 75% ethanol overnight. Cells were centrifuged at 1000 rpm for 5 min, washed once with PBS, and treated with PI staining solution for at least 30 min at room temperature before flow cytometry analysis. ˜20000 events per sample were collected per analysis and cell cycle data was modeled using ModFit™.

Nanog, Tet1 and Eras = experiment: RT-qPCR of mES-specific genes in 4F-transduced MEFs; assay type: cell-based, mouse; settings: day 14 post transduction
Protocol: Data is derived from analysis of three independent wells. FIG. 23B is a histogram of relative mRNA level. […] Cells were harvested at day 14 post 4F transduction. […] Shown are data derived from three independent wells.
(§1) mRNA quantitative PCR: Total RNAs were extracted using Trizol (Invitrogen). After extraction, 1 ug total RNA was used for RT using Superscript II™ (Invitrogen). Quantitative PCR was performed using a Roche LightCycler480™ II and the Sybr green mixture from Abgene (Ab-4166). Other primers were previously described (Takahashi et al. 2006 Cell 126:663-76).

[2] = test system: 4F-transduced Oct4-GFP MEFs; experiment: Kinase inhibitor treatment of 4F-transduced Oct4-GFP MEFs, Oct4-GFP+ colony count (reprogramming efficiency); assay type: cell-based, mouse
Protocol: MEFs were cultured in DMEM (Invitrogen, 11995-065) with 10% FBS (Invitrogen) plus glutamine and NEAA. Only MEFs at passage of 0 to 4 were used for reprogramming. pMX-Oct4, Sox2, Klf4 and cMyc were purchased from Addgene. […] Viruses were harvested and combined 2 days later. For reprogramming, MEFs were seeded in 12-well plates and transduced with 4F virus the next day with 4 ug/ml Polybrene. One day later, the medium was changed to fresh MEF medium, and 3 days later it was changed to mES culture medium supplemented with LIF (Millipore, ESG1107). GFP+ colonies were picked at day 14 post-transduction, and expanded clones were cultured in DMEM with 15% FBS (Hyclone) plus LIF, thioglycerol, glutamine and NEAA. Irradiated CF1 MEFs served as feeder layers to culture mES cells and derived iPS clones.
All compounds are well-characterized protein kinase inhibitors. Compounds were diluted to 2 mM in 96-well plates. 4F-transduced cells were seeded into gelatin coated plates (4000 cells/well). Inhibitors were added every other day until day 13. Cells were then fixed with 4% paraformaldehyde for 20 min at room temperature and number of Oct4-GFP+ colonies was directly counted under a microscope. Cells were then stained with Vector red alkaline phosphatase substrate kit I™ (Vector laboratories, SK5100).
To define signaling mechanisms underlying reprogramming, a double-blind screen of 244 well-characterized cell-permeable protein kinase inhibitors was undertook to identify kinases that enhance or inhibit the process. Mouse embryonic fibroblasts from a transgenic line in which GFP expression is driven by the endogenous Oct4 promoter were chosen as the starting material for a reporter cell line of somatic cell reprogramming. Fully reprogrammed cells switch on endogenous Oct4 expression, making resultant iPS colonies GFP-positive and enabling quantification of reprogramming efficiency. To minimize well-to-well variation, MEFs were first transduced with 4F factors in bulk (FIG. 9A) and then reseeded at 3000 cells/well into gelatin-coated 96-well plates before inhibitor treatment. Starting at day 3 post-transduction, inhibitors were added at a final concentration of 2 μM and media were refreshed every other day with mES culture medium plus inhibitor. At day 13 post-transduction, plates were fixed in 4% paraformaldehyde and GFP-positive colonies were directly quantified microscopically.
Two columns of wells from each plate (columns 1 and 12) were treated with DMSO (vehicle) only and served as controls.

GSK3β = experiment: Western blotting of phospho- and total GSK3β; assay type: cell-based, mouse; settings: 4F-infected MEFs
Protocol: 4F-infected MEFs were treated with different doses of B6 inhibitor starting at day 3 post-infection for 48 hrs before being harvested for western blotting analysis.
The experiment was the same as FIG. 5C. Actin served as the loading control.
4F-infected MEFs were treated with 1 μM each of Akt inhibitor (Akt X) and B6.
Membranes were blocked with 5% milk in TBST for at least 1 hr at room temp or overnight at 4° C.

Aurora A kinase mRNA = experiment: RT-qPCR of Aurora A kinase mRNA; assay type: cell-based, mouse; settings: 4F-infected MEFs, 1 μM, 2 days
Protocol: MEFs were infected with 4F for 3 days and treated under mock conditions or with DMSO or 1 μM B6 for 2 days prior to RT-qPCR analysis of total RNA.
as §1

Pdk1, Src, Pten and p85α = experiment: RT-qPCR of genes upstream of Akt; assay type: cell-based, mouse; settings: MEFs transduced with 4F for three days, then 1 μM for two days
Protocol: FIG. 22, is a graph plotting relative mRNA levels in MEFs. […] MEFs were first transduced with 4F for three days and then treated for another two days with DMSO or 1 μM B6. Total RNAs were harvested and analyzed for indicated factors, which reportedly function upstream of Akt.
as §1

mES cells = experiment: mES cell self-renewal and differentiation in LIF+ and LIF− conditions; assay type: cell-based, mouse; settings: 0.5 μM and 1 μM, 4 days
Description: Cells were harvested for RNA extraction and RT-qPCR of indicated mES self-renewal genes.
LIF withdrawal in both B6-treated and DMSO control cells promoted mES cell differentiation, as indicated by loss of colonies, based on morphology and AP staining (data not shown).

myosin II heavy chain = settings: kind of value not given; cited from earlier work
MEK1 = MEK1 (Homo sapiens, UniProt Q02750); settings: kind of value not given; cited from earlier work

Chain of Cdk1 (P06493 whole entry, species assumed): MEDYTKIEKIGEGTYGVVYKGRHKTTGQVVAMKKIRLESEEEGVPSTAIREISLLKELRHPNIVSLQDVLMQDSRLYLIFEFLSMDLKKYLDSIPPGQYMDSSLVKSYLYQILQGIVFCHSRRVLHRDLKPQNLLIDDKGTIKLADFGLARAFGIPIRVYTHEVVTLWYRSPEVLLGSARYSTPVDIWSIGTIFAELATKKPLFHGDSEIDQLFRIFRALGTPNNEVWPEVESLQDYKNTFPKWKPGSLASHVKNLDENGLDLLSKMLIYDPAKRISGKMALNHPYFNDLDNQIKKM
Chain of Cdk1 (P14635 whole entry partner, species assumed): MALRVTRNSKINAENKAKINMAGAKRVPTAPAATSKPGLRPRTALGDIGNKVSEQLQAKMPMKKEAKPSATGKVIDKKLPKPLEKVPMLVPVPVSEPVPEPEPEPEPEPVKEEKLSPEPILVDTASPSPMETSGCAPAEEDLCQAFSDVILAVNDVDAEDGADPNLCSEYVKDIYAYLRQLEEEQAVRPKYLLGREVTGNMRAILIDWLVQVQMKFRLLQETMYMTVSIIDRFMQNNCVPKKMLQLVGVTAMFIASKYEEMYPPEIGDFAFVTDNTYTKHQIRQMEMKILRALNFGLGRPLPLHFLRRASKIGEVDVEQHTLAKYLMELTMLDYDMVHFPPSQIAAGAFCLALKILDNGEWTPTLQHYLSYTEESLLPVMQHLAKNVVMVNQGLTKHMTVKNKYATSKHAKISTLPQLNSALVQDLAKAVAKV
Chain of Cdk1/B (P06493 whole entry, species assumed): as the sequence (P06493 whole entry, species assumed) above
Chain of Cdk1/B (P14635 whole entry partner, species assumed): as the sequence (P14635 whole entry partner, species assumed) above
Chain of Lck (P06239 whole entry): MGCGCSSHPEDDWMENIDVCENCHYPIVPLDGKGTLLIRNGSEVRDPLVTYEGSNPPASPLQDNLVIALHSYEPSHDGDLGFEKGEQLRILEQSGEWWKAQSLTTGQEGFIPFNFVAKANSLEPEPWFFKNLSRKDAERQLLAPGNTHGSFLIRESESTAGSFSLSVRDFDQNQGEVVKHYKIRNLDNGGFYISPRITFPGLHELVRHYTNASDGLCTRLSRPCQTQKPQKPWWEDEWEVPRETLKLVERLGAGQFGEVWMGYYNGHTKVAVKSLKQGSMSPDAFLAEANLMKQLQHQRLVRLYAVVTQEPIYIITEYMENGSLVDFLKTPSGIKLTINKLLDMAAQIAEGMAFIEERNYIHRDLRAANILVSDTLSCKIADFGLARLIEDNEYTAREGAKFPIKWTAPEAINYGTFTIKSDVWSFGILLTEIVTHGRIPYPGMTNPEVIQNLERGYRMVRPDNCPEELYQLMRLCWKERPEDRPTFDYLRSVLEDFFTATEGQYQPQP
Chain of PKCβ (P05771 whole entry, species assumed): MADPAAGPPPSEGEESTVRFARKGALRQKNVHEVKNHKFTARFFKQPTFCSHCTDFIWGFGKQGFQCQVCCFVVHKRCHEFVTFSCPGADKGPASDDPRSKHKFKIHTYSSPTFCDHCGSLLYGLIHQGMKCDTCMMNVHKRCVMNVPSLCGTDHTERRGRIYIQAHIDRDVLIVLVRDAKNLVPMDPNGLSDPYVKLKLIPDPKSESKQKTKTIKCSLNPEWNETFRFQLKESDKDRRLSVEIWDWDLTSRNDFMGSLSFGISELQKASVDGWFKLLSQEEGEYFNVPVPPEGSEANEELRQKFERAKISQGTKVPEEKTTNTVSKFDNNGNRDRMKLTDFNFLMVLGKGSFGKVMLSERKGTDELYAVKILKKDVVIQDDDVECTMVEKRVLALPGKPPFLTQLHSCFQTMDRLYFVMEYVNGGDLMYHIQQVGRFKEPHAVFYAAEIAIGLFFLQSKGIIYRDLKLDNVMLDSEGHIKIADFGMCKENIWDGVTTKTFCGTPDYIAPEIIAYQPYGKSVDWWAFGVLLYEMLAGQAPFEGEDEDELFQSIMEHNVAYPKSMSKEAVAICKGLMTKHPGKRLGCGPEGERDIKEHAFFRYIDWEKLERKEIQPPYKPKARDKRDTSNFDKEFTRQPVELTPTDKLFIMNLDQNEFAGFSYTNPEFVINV
Chain of Chk2 (O96017 whole entry, species assumed): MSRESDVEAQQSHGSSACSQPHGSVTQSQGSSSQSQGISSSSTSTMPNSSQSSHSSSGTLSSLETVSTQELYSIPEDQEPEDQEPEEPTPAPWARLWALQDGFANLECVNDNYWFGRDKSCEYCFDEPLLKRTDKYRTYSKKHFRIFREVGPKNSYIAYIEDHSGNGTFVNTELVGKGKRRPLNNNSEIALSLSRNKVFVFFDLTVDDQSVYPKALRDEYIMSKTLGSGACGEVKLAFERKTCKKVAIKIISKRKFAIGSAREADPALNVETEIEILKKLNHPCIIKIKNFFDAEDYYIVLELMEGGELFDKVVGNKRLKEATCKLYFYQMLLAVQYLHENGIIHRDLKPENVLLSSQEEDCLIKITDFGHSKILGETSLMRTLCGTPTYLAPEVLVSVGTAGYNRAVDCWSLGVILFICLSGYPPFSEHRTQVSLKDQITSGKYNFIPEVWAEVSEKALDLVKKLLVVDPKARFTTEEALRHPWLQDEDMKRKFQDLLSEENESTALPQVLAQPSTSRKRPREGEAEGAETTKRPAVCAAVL
Chain of PKCδ (Q05655 whole entry): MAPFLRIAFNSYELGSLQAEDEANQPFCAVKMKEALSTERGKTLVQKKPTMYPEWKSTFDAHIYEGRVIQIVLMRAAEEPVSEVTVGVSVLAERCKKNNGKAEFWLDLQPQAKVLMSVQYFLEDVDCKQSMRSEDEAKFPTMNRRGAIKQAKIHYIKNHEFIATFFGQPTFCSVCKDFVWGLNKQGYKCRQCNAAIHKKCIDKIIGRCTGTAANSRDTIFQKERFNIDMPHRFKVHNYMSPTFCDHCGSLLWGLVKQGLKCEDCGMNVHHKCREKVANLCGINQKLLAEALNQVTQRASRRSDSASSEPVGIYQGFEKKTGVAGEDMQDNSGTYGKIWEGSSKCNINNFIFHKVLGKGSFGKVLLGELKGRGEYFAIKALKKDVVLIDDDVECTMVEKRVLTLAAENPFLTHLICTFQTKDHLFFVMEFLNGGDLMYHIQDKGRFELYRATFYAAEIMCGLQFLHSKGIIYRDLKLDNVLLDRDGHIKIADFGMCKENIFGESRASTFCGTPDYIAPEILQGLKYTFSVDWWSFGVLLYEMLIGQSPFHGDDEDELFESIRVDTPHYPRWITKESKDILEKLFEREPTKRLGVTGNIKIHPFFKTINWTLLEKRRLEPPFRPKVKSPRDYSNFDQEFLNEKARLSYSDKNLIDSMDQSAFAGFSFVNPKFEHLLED

## CC(C)c1nn(-c2c(Cl)cccc2Cl)c2nc(Cc3ccc(OCCO)cc3)[nH]c(=O)c12 [BIM-0086744]
Cdk7/H/MAT1
  pIC50: 8.05
Cdk2/E
  pIC50: 8.05
Cdk3/E
  pIC50: 8.00
Cdk1/B
  pIC50: 7.32
Cdk5/p35
  pIC50: 7.15

## CN[C@@H]1C[C@H]2O[C@@](C)([C@@H]1OC)n1c3ccccc3c3c4c(c5c6ccccc6n2c5c31)C(=O)N[C@@H]4O [BIM-0207189, UCN-01]
PAK4
  Potential Targets: PAK4: 50 nM
Chk1
  Potential Targets: Chk1: 7 nM
Cdk1
  Potential Targets: Cdk1: 50 nM
MAPKAP kinase-2
  Potential Targets: MAPKAP kinase-2: 95 nM
PKCγ
  Potential Targets: PKCγ: 30 nM
[1]
  Potential Targets: Cdc25C-associated protein kinase 1: 27 nM
PDK1
  Potential Targets: PDK1: 33 nM
Lck
  Potential Targets: Lck: 50 nM
PKCδ
  Potential Targets: PKCδ: 590 nM
Chk2
  Potential Targets: Chk2: 1.04 μM for Chk1, Cdc25C-
PKCα
  Potential Targets: PKCα: 9 nM
Cdk5/p25
  Potential Targets: Cdk5/p25: 150 nM
PKCβ
  Potential Targets: PKCβ: 34 nM

## COc1cc(Nc2ncc3c(n2)-c2ccc(Cl)cc2C(c2c(F)cccc2OC)=NC3)ccc1C(=O)O [MLN8237]
Aurora A kinase
  AurkA protein levels: Increased AurkA protein levels
4F-infected MEFs; 10 nM
  cell cycle: did not alter the cell cycle
4F-infected MEFs; 100 nM
  number of cells in G2: increased the number of cells in G2
4F-infected MEFs
  cell cycle progression: little change in cell cycle progression
Nanog, Tet1 and Eras
  mES-specific gene expression: increases in mES-specific gene expression
[2]; 10 nM, from day 3 for 10 days
  enhancement of reprogramming: approximately 4 fold
[2]; 100 nM
  number of GFP+ colonies: significant increase in the number of GFP+ colonies

## O=C(Nc1cccc(Nc2nccc(Nc3cccc(C(F)(F)F)c3)n2)c1)C1CC1 [BIM-0086660]
GSK3β; 48 hrs
  GSK3β total protein levels: unchanged
GSK3β; different doses from day 3 post-infection for 48 hrs
  phospho-GSK3β: significant increase in phospho-GSK3β
Aurora A kinase
  AurkA protein levels: increased AurkA protein levels relative to untreated cells
4F-infected MEFs
  cell cycle progression: little change in cell cycle progression
Aurora A kinase mRNA
  AurkA mRNA levels: not significantly altered
Pdk1, Src, Pten and p85α
  expression levels of genes upstream of Akt (Pdk1, Src, Pten, p85α): significant changes were not observed
mES cells
  Oct4 expression in mES cells: very small increase
mES cells; LIF+ and LIF−
  mES self-renewal or differentiation: a significant effect on either mES self-renewal (in the presence of LIF) or differentiation (following LIF withdrawal) was not seen
[2]; 0.5 μM, drug from day 3, colonies at day 13
  reprogramming, Oct4-GFP+ colonies, dose/response: potent enhancers
[2]; secondary screen, 1 μM, vs DMSO
  reprogramming, Oct4-GFP+ colonies: enhanced reprogramming more robustly at 1 μM than at 2 μM

## c1nc2nc(Nc3ccc(N4CCOCC4)cc3)nc(NC3CCCCC3)c2[nH]1 [BIM-0207192, Reversine]
Myosin II heavy chain
  Potential Targets: myosin II heavy chain: chain (10 nM), Aurora kinases
MEK1
  Potential Targets: MEK1: MEK1 (8 nM), myosin II heavy
